Key:
[1] = Plasma protein binding by ultracentrifugation; type: in vitro ADME; details: male, rat plasma
Experimental: The unbound fraction in plasma was determined by ultracentrifugation.

[2] = system: TRPM8-mediated icilin-induced wet-dog shakes in rats; test: Icilin-induced wet-dog shake (WDS) model; type: in vivo, rat
Experimental: The TRPM8 antagonist (1, 3, or 10 mg/kg) or vehicle control (5 % Tween 80 in OraPlus®) was administered p.o. 90 min prior to administration of icilin (0.5 mg/kg, 1 ml/kg, i.p., 100 % PEG 400). […] Rats were viewed through transparent Plexiglas® observation cylinders that were placed on a custom, opaque, plastic apparatus such that one rat could not view another rat.
In vivo IC50 and IC90 estimates using WDS model data were determined by fitting a sigmoidal dose-response curve to individual animal number of WDS versus resulting plasma concentration. Behavioral and electrophysiological data are expressed as mean ± standard error of the mean (S.E.M.). Results were analyzed using one-way analysis of variance (ANOVA) with Dunnett’s multiple-comparisons post-hoc test for significance relative to vehicle. […] Actual gram values are plotted on a logarithmic scale Y-axis of the figures for convenience. Statistical calculations and graphs were made using GraphPad Prism 5.01 (GraphPad Software Inc, San Diego, CA). Percent responders to menthol stimulation in the ex vivo skin-nerve preparation were compared under vehicle and antagonist conditions through the use of Fisher’s exact test. Responses of C fibers to increasing mechanical forces under vehicle or antagonist conditions were compared using a two-way ANOVA with a Bonferonni post-hoc analysis.

[3] = system: TRPM8 on cutaneous nerve terminals (C fibers); test: Skin-nerve preparation, menthol-evoked activation of C fibers; design: species or system mouse; details: 10 μM; 300 μM menthol; n = 22; p = 0.005
Text: (§1) Adult C57BL/6 mice were obtained from Jackson Laboratories and used for ex vivo skin-nerve preparations. Mice were allowed to acclimate to the animal facility at the Medical College of Wisconsin, an Association for the Assessment and Accreditation of Laboratory Animal […] (AALAC)-accredited facility, for approximately 1 week following shipment. Animals were housed with up to four other cagemates and had ad libitum access to food pellets and hyper-chlorinated water. Mice were housed on a 14:10 h light-dark cycle in cages containing aspen bedding and paper nesting material. Room temperatures averaged 21 °C. Prior to use, animals were briefly anesthetized with inhaled isoflurane and then sacrificed via cervical dislocation.
(§2) The mouse saphenous skin-nerve in vitro preparation (Koltzenburg et al. [1997]; Stucky et al. [1999]) was used for electrophysiological recordings of cutaneous terminals of primary afferent fibers in situ. […] Once a unit with a signal to noise ratio >2 was identified, the mechanical threshold was determined using calibrated von Frey filaments (range, 0.44–147.0 mN). […]
(§3) Wave forms of action potentials evoked by mechanical stimuli were saved on an oscilloscope for comparison of shape and profile. […] Action potentials were discriminated and counted off-line using a spike histogram software extension. […] All data was also analyzed in a blinded manner.

cutaneous C fibers = test: Skin-nerve preparation, mechanically induced firing in cutaneous C fibers; design: species or system mouse; details: 10 μM; sustained force 5-245 mN; compared to vehicle
Text: as §1, §2, §3

C[C@H](NC(=O)N1CCc2cccnc2[C@H]1c1ccc(C(F)(F)F)cc1)C(F)(F)F [AMG2850, (R)-8-(4-(trifluoromethyl)phenyl)-N-((S)-1,1,1-trifluoropropan-2-yl)-5,6-dihydro-1,7-naphthyridine-7(8H)-carboxamide]
fraction unbound at 15 min, 5 ug/mL [1]: 0.119 | prevention of icilin-induced WDS ([2]; 10 mg/kg p.o., 90 min before icilin 0.5 mg/kg i.p.): Full prevention | IC90 ([2]; Rattus norvegicus, ip, unbound plasma concentration, icilin 0.5 mg/kg i.p., read-out: Rat PD IC90 (unbound mean in vivo IC90, WDS model)): 99 nM | ED50 ([2]; Rattus norvegicus, p.o., icilin 0.5 mg/kg i.p., read-out: Rat PD ED50): 1.8 mg/kg | effect on menthol-evoked firing of C fibers [3]: completely inhibited all menthol-evoked firing | effect on mechanical firing in C fibers (cutaneous C fibers): no significant effect
